# Laboratory results reported in patent US12679822B2, “Alkenyl pyrimidine compound, preparation method therefor, and application thereof” (Hongyun Biotech Co., Ltd., priority 2020, dated 2026).
# What was measured:
# Assay type in all cases: cell-based
# [1] = molecular target: BaF3 cell lines stably transfected with kinase EGFR Del (Homo sapiens, UniProt P00533, cells depend on it, form not given); test: Growth inhibition of BaF3 cell line stably transfected with kinase EGFR Del (MTS); settings: 48 h, read-out: growth inhibitory activity IC50, Del
# Procedure: (§1) Biological Activity Assay: Growth Inhibitory Activity of Compounds on Cell Lines Stably Transfected with Kinase
# (§2) The activity of compounds against various mutants of kinase EGFR was evaluated by their effect of inhibiting growth of BaF3 cell lines stably transfected with kinase. The specific test method was given as follows:
# (§3) 1) Culture medium: DMEM (Dulbecco's modified eagle medium) or RPMI 1640 (containing 10% fetal bovine serum, 100 μg/mL ampicillin, 100 μg/mL streptomycin).
# (§4) 2) Reagent: MTS reaction solution (containing 2 mg/mL of MTS [3-(4,5-di methylthiazol-2-yl)-5-(3-carboxymethoxyphenyl)-2-(4-sulfophenyl)-2H-tetrazolium, inner Salt]; 100 μg/mL of PES (phenazine […])).
# (§5) 3) Compound test: cells were incubated into a 96-well culture plate, the volume of cytosol was 90 μL, and then 10 μL of the compound at each gradient concentration was added. That is, the highest concentration was 10 μM, which was diluted stepwise by ⅓, and 8 concentration points were set in total; 0.1% DMSO (dimethyl sulfoxide) was contained in the system. The cell plate with uniformly mixed compound was cultured in a cell culture incubator (37° C.; 5% […]) for 48 h, then 20 μL of MTS reaction solution was added, uniformly mixed and incubated in the cell culture incubator (37° C.; 5% CO2) for 1-4 h; OD values at 490 nm were measured by a microplate reader (VARIOSKAN FLASH, Thermo). Two parallels were set in each group of experiments, with 0.1% (a final concentration) DMSO as a negative control, and a culture medium without cells and compounds as a blank control. The cell growth inhibition rate was calculated by the following formula: Cell growth inhibition rate %=1−(ODexperimental group−ODblank group)/(ODnegative group−ODblank group)×100%.
# (§6) 4) IC50 calculation: The semi-inhibitory concentration of the compounds acting on cells was calculated using GradPad Prism 5 software according to the measured cell growth inhibition rate.
# [2] = molecular target: BaF3 cell lines stably transfected with kinase EGFR Del/T790M/C797S (Homo sapiens, UniProt P00533, T790M/C797S, cells depend on it, form not given); test: Growth inhibition of BaF3 cell line stably transfected with kinase EGFR Del/T790M/C797S (MTS); settings: 48 h, read-out: growth inhibitory activity IC50, Del/T790M/C797S
# Procedure: as §1, §2, §3, §4, §5, §6
# [3] = molecular target: BaF3 cell lines stably transfected with kinase EGFR L858R (Homo sapiens, UniProt P00533, L858R, cells depend on it); test: Growth inhibition of BaF3 cell line stably transfected with kinase EGFR L858R (MTS); settings: 48 h, read-out: growth inhibitory activity IC50, L858R
# Procedure: as §1, §2, §3, §4, §5, §6
# [4] = molecular target: BaF3 cell lines stably transfected with kinase EGFR L858R/T790M (Homo sapiens, UniProt P00533, T790M/L858R, cells depend on it); test: Growth inhibition of BaF3 cell line stably transfected with kinase EGFR L858R/T790M (MTS); settings: 48 h, read-out: growth inhibitory activity IC50, L858R/T790M
# Procedure: as §1, §2, §3, §4, §5, §6
# [5] = molecular target: BaF3 cell lines stably transfected with kinase EGFR L858R/T790M/C797S (Homo sapiens, UniProt P00533, T790M/C797S/L858R, cells depend on it); test: Growth inhibition of BaF3 cell line stably transfected with kinase EGFR L858R/T790M/C797S (MTS); settings: 48 h, read-out: growth inhibitory activity IC50, L858R/T790M/C797S
# Procedure: as §1, §2, §3, §4, §5, §6
# [6] = molecular target: BaF3 cell lines stably transfected with kinase EGFR Del/T790M (Homo sapiens, UniProt P00533, T790M, cells depend on it, form not given); test: Growth inhibition of BaF3 cell line stably transfected with kinase EGFR Del/T790M (MTS); settings: 48 h, read-out: growth inhibitory activity IC50, Del/T790M
# Procedure: as §1, §2, §3, §4, §5, §6
# BaF3 cell lines stably transfected with kinase EGFR Del/T790M/C797S, sequence (P00533 with tags, fused parts or gaps DEL746-750/T790M/C797S, form open): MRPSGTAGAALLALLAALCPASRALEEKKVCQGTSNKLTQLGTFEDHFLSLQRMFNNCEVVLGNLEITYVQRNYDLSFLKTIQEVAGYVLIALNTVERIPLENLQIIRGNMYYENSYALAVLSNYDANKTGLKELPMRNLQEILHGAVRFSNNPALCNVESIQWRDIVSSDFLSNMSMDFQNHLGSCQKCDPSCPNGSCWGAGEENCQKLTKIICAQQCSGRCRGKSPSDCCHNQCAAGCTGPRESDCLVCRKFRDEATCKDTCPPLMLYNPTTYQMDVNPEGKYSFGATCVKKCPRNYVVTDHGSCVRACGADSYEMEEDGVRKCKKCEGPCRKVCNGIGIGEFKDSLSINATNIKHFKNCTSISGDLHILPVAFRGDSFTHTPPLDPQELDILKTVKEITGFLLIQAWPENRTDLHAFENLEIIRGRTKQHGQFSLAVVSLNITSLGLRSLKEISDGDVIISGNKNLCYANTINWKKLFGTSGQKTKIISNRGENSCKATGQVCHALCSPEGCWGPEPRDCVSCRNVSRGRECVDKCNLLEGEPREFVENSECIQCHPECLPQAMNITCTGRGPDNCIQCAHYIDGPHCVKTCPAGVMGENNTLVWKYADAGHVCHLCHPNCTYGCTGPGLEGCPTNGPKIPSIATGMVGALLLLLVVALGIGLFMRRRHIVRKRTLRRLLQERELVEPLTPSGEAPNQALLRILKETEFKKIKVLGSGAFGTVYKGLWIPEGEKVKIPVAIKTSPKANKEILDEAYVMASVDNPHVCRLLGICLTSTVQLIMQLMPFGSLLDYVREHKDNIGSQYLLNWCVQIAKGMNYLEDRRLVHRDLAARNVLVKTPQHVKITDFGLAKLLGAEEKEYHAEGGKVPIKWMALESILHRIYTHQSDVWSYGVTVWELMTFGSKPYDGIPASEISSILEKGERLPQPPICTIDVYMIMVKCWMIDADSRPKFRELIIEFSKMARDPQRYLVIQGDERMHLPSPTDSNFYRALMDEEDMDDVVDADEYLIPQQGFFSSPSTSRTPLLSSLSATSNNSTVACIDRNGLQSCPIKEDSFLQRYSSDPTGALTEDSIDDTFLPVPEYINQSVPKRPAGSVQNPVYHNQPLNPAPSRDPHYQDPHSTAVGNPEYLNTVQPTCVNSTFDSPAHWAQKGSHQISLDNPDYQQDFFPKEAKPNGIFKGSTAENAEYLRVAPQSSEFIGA
# BaF3 cell lines stably transfected with kinase EGFR L858R, sequence (P00533 whole entry L858R): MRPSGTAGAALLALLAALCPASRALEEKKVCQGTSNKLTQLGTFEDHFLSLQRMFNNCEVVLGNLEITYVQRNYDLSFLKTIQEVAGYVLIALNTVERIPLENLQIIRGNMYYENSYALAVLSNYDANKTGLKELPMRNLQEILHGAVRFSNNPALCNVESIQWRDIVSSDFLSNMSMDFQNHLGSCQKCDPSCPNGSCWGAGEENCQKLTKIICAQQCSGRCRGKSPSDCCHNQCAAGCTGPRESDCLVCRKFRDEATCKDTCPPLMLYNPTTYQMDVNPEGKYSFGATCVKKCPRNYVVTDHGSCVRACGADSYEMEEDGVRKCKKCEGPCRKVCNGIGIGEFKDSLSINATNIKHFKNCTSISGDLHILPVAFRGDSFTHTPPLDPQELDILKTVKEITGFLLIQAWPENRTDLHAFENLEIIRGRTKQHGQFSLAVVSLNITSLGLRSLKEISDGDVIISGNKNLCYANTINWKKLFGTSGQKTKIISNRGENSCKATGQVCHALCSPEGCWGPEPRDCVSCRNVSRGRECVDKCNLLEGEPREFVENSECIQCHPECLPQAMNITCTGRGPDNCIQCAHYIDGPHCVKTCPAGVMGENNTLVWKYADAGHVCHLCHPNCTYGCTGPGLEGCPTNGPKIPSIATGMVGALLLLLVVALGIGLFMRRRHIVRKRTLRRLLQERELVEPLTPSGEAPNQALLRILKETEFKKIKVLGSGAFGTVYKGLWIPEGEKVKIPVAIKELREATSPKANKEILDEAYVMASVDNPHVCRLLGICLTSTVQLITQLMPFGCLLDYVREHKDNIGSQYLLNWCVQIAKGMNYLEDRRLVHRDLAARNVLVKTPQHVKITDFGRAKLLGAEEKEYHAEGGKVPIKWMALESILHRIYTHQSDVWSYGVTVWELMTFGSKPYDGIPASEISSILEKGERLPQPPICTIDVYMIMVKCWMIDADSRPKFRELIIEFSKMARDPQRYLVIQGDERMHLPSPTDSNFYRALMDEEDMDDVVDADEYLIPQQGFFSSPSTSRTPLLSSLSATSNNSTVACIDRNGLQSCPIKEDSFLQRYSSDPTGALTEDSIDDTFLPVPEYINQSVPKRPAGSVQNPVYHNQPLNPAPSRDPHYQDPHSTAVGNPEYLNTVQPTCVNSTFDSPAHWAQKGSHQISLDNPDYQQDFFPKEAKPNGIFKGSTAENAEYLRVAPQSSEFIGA
# BaF3 cell lines stably transfected with kinase EGFR Del/T790M, sequence (P00533 with tags, fused parts or gaps DEL746-750/T790M, form open): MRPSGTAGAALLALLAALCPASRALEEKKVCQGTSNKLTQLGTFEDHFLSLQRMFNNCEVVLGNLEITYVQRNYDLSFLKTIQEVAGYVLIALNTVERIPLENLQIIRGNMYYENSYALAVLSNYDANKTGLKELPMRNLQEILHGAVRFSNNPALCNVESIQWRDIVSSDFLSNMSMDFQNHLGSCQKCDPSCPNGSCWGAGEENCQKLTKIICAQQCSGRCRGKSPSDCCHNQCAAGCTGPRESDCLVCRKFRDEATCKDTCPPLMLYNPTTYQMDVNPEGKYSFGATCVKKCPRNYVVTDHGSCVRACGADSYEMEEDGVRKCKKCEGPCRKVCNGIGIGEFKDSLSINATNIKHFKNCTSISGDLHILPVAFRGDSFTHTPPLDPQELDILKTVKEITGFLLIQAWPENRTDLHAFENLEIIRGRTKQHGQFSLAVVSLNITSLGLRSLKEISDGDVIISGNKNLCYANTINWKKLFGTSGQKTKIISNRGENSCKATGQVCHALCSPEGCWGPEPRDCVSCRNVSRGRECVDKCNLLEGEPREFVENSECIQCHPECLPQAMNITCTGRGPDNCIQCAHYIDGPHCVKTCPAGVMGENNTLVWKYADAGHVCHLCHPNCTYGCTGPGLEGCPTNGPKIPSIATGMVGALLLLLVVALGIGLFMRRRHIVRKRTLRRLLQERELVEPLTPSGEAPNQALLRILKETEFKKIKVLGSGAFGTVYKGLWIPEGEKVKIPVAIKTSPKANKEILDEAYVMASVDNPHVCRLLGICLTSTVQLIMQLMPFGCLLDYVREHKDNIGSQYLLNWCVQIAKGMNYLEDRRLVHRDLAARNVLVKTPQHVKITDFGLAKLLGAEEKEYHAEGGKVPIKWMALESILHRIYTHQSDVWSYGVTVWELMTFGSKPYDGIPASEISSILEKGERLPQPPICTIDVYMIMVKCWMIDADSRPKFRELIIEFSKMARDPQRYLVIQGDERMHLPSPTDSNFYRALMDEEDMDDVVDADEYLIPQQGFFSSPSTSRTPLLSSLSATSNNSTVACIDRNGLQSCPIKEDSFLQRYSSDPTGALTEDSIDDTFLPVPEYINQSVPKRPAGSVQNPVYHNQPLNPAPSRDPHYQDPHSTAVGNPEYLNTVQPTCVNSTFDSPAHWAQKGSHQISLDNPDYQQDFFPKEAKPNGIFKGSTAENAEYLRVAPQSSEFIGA
# BaF3 cell lines stably transfected with kinase EGFR L858R/T790M/C797S, sequence (P00533 whole entry T790M/C797S/L858R): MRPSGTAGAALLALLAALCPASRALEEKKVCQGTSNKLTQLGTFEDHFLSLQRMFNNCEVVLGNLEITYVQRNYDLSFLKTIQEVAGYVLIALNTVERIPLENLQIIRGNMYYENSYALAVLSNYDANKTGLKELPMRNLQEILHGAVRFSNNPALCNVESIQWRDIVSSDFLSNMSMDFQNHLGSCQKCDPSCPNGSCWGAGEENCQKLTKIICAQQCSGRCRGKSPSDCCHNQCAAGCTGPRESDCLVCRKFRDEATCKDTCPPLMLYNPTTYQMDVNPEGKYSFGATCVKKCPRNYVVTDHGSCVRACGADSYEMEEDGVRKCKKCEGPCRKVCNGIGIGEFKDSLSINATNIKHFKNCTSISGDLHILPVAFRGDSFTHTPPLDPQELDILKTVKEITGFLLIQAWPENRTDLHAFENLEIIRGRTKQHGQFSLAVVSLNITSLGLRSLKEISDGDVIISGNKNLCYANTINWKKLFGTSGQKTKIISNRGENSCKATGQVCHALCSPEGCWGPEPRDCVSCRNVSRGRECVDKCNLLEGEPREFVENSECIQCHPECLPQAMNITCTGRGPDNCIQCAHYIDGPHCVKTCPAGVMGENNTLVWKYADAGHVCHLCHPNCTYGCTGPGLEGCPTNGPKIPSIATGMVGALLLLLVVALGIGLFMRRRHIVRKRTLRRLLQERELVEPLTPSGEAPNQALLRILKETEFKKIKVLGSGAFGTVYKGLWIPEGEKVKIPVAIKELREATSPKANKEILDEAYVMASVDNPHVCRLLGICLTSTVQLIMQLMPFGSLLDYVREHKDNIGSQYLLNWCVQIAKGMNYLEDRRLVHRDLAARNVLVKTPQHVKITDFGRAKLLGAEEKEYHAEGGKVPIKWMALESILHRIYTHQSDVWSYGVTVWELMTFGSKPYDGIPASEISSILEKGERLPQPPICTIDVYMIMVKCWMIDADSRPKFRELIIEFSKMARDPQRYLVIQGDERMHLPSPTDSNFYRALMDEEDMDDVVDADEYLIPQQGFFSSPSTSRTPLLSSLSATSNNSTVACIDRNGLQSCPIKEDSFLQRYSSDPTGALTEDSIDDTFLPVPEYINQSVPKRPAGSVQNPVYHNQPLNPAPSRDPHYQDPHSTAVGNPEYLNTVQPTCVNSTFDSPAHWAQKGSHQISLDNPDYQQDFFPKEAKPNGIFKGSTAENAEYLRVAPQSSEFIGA
compound,measurement,setting,value
C=Cc1cnc(Nc2cc(C3CC3)c(N3CCC(N4CCN(C)CC4)CC3)cc2OC)nc1Nc1ccc2nccnc2c1P(C)(C)=O [Compound I-17],GI50,[1],50 to 500 nM
same,GI50,[2],50 to 500 nM
same,GI50,[3],50 to 500 nM
same,GI50,[4],50 to 500 nM
same,GI50,[5],50 to 500 nM
same,GI50,[6],50 to 500 nM
C=Cc1cnc(Nc2ccc(N3CCC(N4CCN(C)CC4)CC3)c(CC)c2)nc1Nc1ccc2nccnc2c1P(C)(C)=O [Compound I-18],GI50,[1],50 to 500 nM
same,GI50,[2],≤ 50 nM
same,GI50,[3],≤ 50 nM
same,GI50,[4],50 to 500 nM
same,GI50,[5],≤ 50 nM
same,GI50,[6],50 to 500 nM
C=C(C)c1cnc(Nc2ccc(N3CCC(N4CCN(C)CC4)CC3)nc2OC)nc1Nc1ccc2nccnc2c1P(C)(C)=O [Compound I-19],GI50,[1],≤ 50 nM
same,GI50,[2],500 to 2500 nM
same,GI50,[3],50 to 500 nM
same,GI50,[4],≤ 50 nM
same,GI50,[5],50 to 500 nM
same,GI50,[6],50 to 500 nM
C=C(C)c1cnc(Nc2cc(C)c(N3CCC(N4CCN(C)CC4)CC3)nc2OC)nc1Nc1ccc2nccnc2c1P(C)(C)=O [Compound I-20],GI50,[1],500 to 2500 nM
same,GI50,[2],500 to 2500 nM
same,GI50,[3],50 to 500 nM
same,GI50,[4],50 to 500 nM
same,GI50,[5],500 to 2500 nM
same,GI50,[6],50 to 500 nM
C=Cc1cnc(Nc2cccc(C3CCN(C)CC3)c2)nc1Nc1ccc2nccnc2c1P(C)(C)=O [Compound I-22],GI50,[1],50 to 500 nM
same,GI50,[2],500 to 2500 nM
same,GI50,[3],50 to 500 nM
same,GI50,[4],≤ 50 nM
same,GI50,[5],50 to 500 nM
same,GI50,[6],50 to 500 nM
C=Cc1cnc(Nc2cc3c(cc2F)CCN(C)C3)nc1Nc1ccc2nccnc2c1P(C)(C)=O [Compound I-23],GI50,[1],50 to 500 nM
same,GI50,[2],500 to 2500 nM
same,GI50,[3],50 to 500 nM
same,GI50,[4],50 to 500 nM
same,GI50,[5],50 to 500 nM
same,GI50,[6],50 to 500 nM
C=Cc1cnc(Nc2ccc3c(c2)CCN(C)CC3)nc1Nc1ccc2nccnc2c1P(C)(C)=O [Compound I-24],GI50,[1],50 to 500 nM
same,GI50,[2],50 to 500 nM
same,GI50,[3],≤ 50 nM
same,GI50,[4],50 to 500 nM
same,GI50,[5],50 to 500 nM
same,GI50,[6],50 to 500 nM
C=Cc1cnc(Nc2cc(CC)c(N3CCC(N4CCN(C)CC4)CC3)cc2OC)nc1Nc1ccc2nccnc2c1N(C)S(C)(=O)=O [II-1],GI50,[1],≤ 50 nM
same,GI50,[2],≤ 50 nM
same,GI50,[3],≤ 50 nM
same,GI50,[4],≤ 50 nM
same,GI50,[5],≤ 50 nM
same,GI50,[6],≤ 50 nM
C=Cc1cnc(Nc2cc(CC)c(N3CCC(N(C)C)CC3)cc2OC)nc1Nc1ccc2nccnc2c1N(C)S(C)(=O)=O [II-2],GI50,[1],≤ 50 nM
same,GI50,[2],≤ 50 nM
same,GI50,[3],≤ 50 nM
same,GI50,[4],≤ 50 nM
same,GI50,[5],≤ 50 nM
same,GI50,[6],≤ 50 nM
C=Cc1cnc(Nc2cc(CC)c(N3CCC(N(C)C)C3)cc2OC)nc1Nc1ccc2nccnc2c1N(C)S(C)(=O)=O (stereo not drawn) [II-3],GI50,[1],≤ 50 nM
same,GI50,[2],≤ 50 nM
same,GI50,[3],≤ 50 nM
same,GI50,[4],≤ 50 nM
same,GI50,[5],≤ 50 nM
same,GI50,[6],≤ 50 nM
C=Cc1cnc(Nc2cc(CC)c(N3CCN(C)CC3)cc2OC)nc1Nc1ccc2nccnc2c1N(C)S(C)(=O)=O [II-4],GI50,[1],≤ 50 nM
same,GI50,[2],≤ 50 nM
same,GI50,[3],≤ 50 nM
same,GI50,[4],≤ 50 nM
same,GI50,[5],≤ 50 nM
same,GI50,[6],≤ 50 nM
C=Cc1cnc(Nc2cc(CC)c(N3CCC(N4CCN(C)CC4)CC3)nc2OC)nc1Nc1ccc2nccnc2c1N(C)S(C)(=O)=O [II-5],GI50,[1],50 to 500 nM
same,GI50,[2],50 to 500 nM
same,GI50,[3],50 to 500 nM
same,GI50,[4],≤ 50 nM
same,GI50,[5],50 to 500 nM
same,GI50,[6],≤ 50 nM
C=Cc1cnc(Nc2cc(CC)c(N3CCC(N4CCN(C)CC4)CC3)cc2OC(F)(F)F)nc1Nc1ccc2nccnc2c1N(C)S(C)(=O)=O [II-6],GI50,[1],50 to 500 nM
same,GI50,[2],≤ 50 nM
same,GI50,[3],50 to 500 nM
same,GI50,[4],50 to 500 nM
same,GI50,[5],50 to 500 nM
same,GI50,[6],≤ 50 nM
C=Cc1cnc(Nc2cc(CC3CC3)c(N3CCC(N4CCN(C)CC4)CC3)cc2OC)nc1Nc1ccc2nccnc2c1N(C)S(C)(=O)=O [II-7],GI50,[1],≤ 50 nM
same,GI50,[2],≤ 50 nM
same,GI50,[3],≤ 50 nM
same,GI50,[4],≤ 50 nM
same,GI50,[5],≤ 50 nM
same,GI50,[6],≤ 50 nM
